According to paper PMC7955127, “Preclinical small molecule WEHI-7326 overcomes drug resistance and elicits response in patient-derived xenograft models of human treatment-refractory tumors” (Cell Death & Disease, 2021):

Experiment: Acute toxicity study, single intravenous dose (non-GLP)
Type: in vivo, Sprague-Dawley rats
Conditions: female rats; for Lung - focal red areas medial right lobe (2 mm diameter) (incidence at necropsy) / Lung - haemorrhagic area right caudal lobe (1mm diameter) (incidence at necropsy) / Multifocal red petechiae on all lung lobes (incidence at necropsy) / Pale yellow liver (minimal) (incidence at necropsy) / ALP / ALT / APTT / AST / Albumin / Albumin/Globulin / Bilirubin (Total) / Calcium / Chloride / Cholesterol / Creatinine / Globulin / Glucose / HCT / HGB / MCH / MCHC / MCV / PLT / PT / Phosphate / Potassium / Protein (Total) / RBC / Retc. / Sodium / Triglycerides / Urea / WBC: day 15; for ALP / ALT / APTT / AST / Albumin / Albumin/Globulin / Bilirubin (Total) / Calcium / Chloride / Cholesterol / Creatinine / Globulin / Glucose / HCT / HGB / MCH / MCHC / MCV / PLT / PT / Phosphate / Potassium / Protein (Total) / RBC / Retc. / Sodium / Triglycerides / Urea / WBC: mean ± SD
Protocol: This acute toxicity study included a satellite group for toxicokinetic assessment. The toxicity study was comprised of 12 male and 12 female rats, which were allocated into four groups of three males and three females. The toxicity of the test substance, WEHI-7326 dihydrochloride (referred to as WEHI-7326 from here), was tested at three dose concentrations of 5 mg/kg, 15 mg/kg and 30 mg/kg administered as a single dose via intravenous tail vein injection. The vehicle control, D-(+)-Glucose, was formulated at 5% w/v and administered per the above regime. On Study Day 15, all animals were terminated with blood collected for biochemistry, haematology and coagulation analysis before undergoing gross necropsy by a US board certified veterinary pathologist. The toxicokinetic satellite group comprised of 30 male rats which were allocated into four groups of three males in the vehicle control group and nine males in each of the three treatment groups. All treatment group animals were then allocated into three subgroups (A, B and C) and bled pre-dose, then 2min, 10min, 0.5h, 2h, 6h, 12h and 24h post-dose. All vehicle control group animals weren’t allocated to a specific subgroup but were bled at 10min and 12h post-dose. All TK animals were then terminated after the final blood collection. Dosing was suspended on Study Day 1 for both the Toxicity and Toxicokinetic Study animals following adverse reactions which lead to the early termination of two animals (one male treated with mid-dose WEHI-7326 from the Toxicity Study and one male treated with high-dose WEHI-7326 from the Toxicokinetic Study) approximately 5-10 minutes post-treatment. After consultation with the Sponsor, the following changes were made to the Study Design:
At the revised high dose of 20mg/kg, all male rats had to be terminated prematurely also due to reaching their body weight loss endpoint of >10% loss. […] Significant findings in clinical pathology outcomes were considered incidental and unrelated to test article treatment. The majority of macroscopic findings at necropsy were also considered to be incidental, however the findings of white streaks through the testes of male animals treated with WEHI-7326 may be related to treatment. Body weights were measured once prior to dose administration, then daily for the duration of the study and at termination. Clinical observations were performed on a daily basis.
The study followed test guideline OECD No. 420 (2001) “Acute Oral Toxicity - Fixed Dose Procedure” with the exception that the route of administration was intravenous (i.v.).

COc1ccc(CNc2nc(NCc3ccc(CN)cc3)nc(NN3CC(=O)NC3=O)n2)cc1 [WEHI-7326]
Body weight loss >10% (termination required) (incidence) (5 mg/kg single i.v.): 0/3
Mild fur loss around both eyes from Study Day 10 to 15 (incidence) (5 mg/kg single i.v.): 0/3
Mild impairment of gait and lack of response to stimuli up to 10 minutes post-dose (incidence) (5 mg/kg single i.v.): 0/3
No remarkable observations (incidence) (5 mg/kg single i.v.): 3/3
Lung - focal red areas medial right lobe (2 mm diameter) (incidence at necropsy) (5 mg/kg single i.v.): 0/3
Lung - haemorrhagic area right caudal lobe (1mm diameter) (incidence at necropsy) (5 mg/kg single i.v.): 0/3
Multifocal red petechiae on all lung lobes (incidence at necropsy) (5 mg/kg single i.v.): 1/3
Pale yellow liver (minimal) (incidence at necropsy) (5 mg/kg single i.v.): 1/3
ALP (5 mg/kg single i.v.): 286 ± 65 U/L
ALT (5 mg/kg single i.v.): 54 ± 11 U/L
APTT (5 mg/kg single i.v.): 17.2 ± 1.9 s
AST (5 mg/kg single i.v.): 93 ± 13 U/L
Albumin (5 mg/kg single i.v.): 37.3 ± 3.1 g/L
Albumin/Globulin (5 mg/kg single i.v.): 1.6 ± 0.4 Ratio
Bilirubin (Total) (5 mg/kg single i.v.): 0.8 ± 0.1 µM
Calcium (5 mg/kg single i.v.): 2.59 ± 0.07 mM
Chloride (5 mg/kg single i.v.): 102.4 ± 0.5 mM
Cholesterol (5 mg/kg single i.v.): 1.98 ± 0.21 mM
Creatinine (5 mg/kg single i.v.): 30 ± 3 µM
Globulin (5 mg/kg single i.v.): 23.7 ± 3.4 g/L
Glucose (5 mg/kg single i.v.): 7.57 ± 0.07 mM
HCT (5 mg/kg single i.v.): 0.45 ± 0.01 L/L
HGB (5 mg/kg single i.v.): 137.3 ± 4.9 g/L
MCH (5 mg/kg single i.v.): 18.87 ± 0.45 pg
MCHC (5 mg/kg single i.v.): 303.0 ± 4.4 g/L
MCV (5 mg/kg single i.v.): 62.3 ± 0.9 fL
PLT (5 mg/kg single i.v.): 1080.0 ± 206.7 10^9/L
PT (5 mg/kg single i.v.): 21.9 ± 1.0 s
Phosphate (5 mg/kg single i.v.): 1.75 ± 0.14 mM
Potassium (5 mg/kg single i.v.): 5.30 ± 0.14 mM
Protein (Total) (5 mg/kg single i.v.): 61.0 ± 0.4 g/L
RBC (5 mg/kg single i.v.): 7.27 ± 0.14 10^12/L
Retc. (5 mg/kg single i.v.): 3.76 ± 0.62%
Sodium (5 mg/kg single i.v.): 138 ± 1 mM
Triglycerides (5 mg/kg single i.v.): 0.86 ± 0.29 mM
Urea (5 mg/kg single i.v.): 6.56 ± 1.18 mM
WBC (5 mg/kg single i.v.): 11.28 ± 4.18 10^9/L
Body weight loss >10% (termination required) (incidence) (15 mg/kg single i.v.): 2/3
Mild fur loss around both eyes from Study Day 10 to 15 (incidence) (15 mg/kg single i.v.): 0/3
Mild impairment of gait and lack of response to stimuli up to 10 minutes post-dose (incidence) (15 mg/kg single i.v.): 0/3
No remarkable observations (incidence) (15 mg/kg single i.v.): 1/3
Lung - focal red areas medial right lobe (2 mm diameter) (incidence at necropsy) (15 mg/kg single i.v.): 0/1
Lung - haemorrhagic area right caudal lobe (1mm diameter) (incidence at necropsy) (15 mg/kg single i.v.): 0/1
Multifocal red petechiae on all lung lobes (incidence at necropsy) (15 mg/kg single i.v.): 0/1
Pale yellow liver (minimal) (incidence at necropsy) (15 mg/kg single i.v.): 0/1
ALP (15 mg/kg single i.v.): 218 ± 0 U/L
ALT (15 mg/kg single i.v.): 55 ± 0 U/L
APTT (15 mg/kg single i.v.): 18.6 ± 0.0 s
AST (15 mg/kg single i.v.): 73 ± 0 U/L
Albumin (15 mg/kg single i.v.): 37.7 ± 0 g/L
Albumin/Globulin (15 mg/kg single i.v.): 1.3 ± 0 Ratio
Bilirubin (Total) (15 mg/kg single i.v.): 1.0 ± 0 µM
Calcium (15 mg/kg single i.v.): 2.48 ± 0 mM
Chloride (15 mg/kg single i.v.): 102.5 ± 0 mM
Cholesterol (15 mg/kg single i.v.): 1.59 ± 0 mM
Creatinine (15 mg/kg single i.v.): 27 ± 0 µM
Globulin (15 mg/kg single i.v.): 28.8 ± 0 g/L
Glucose (15 mg/kg single i.v.): 7.31 ± 0 mM
HCT (15 mg/kg single i.v.): 0.45 ± 0.00 L/L
HGB (15 mg/kg single i.v.): 136.0 ± 0.0 g/L
MCH (15 mg/kg single i.v.): 18.70 ± 0.00 pg
MCHC (15 mg/kg single i.v.): 306.0 ± 0.0 g/L
MCV (15 mg/kg single i.v.): 60.90 ± 0.0 fL
PLT (15 mg/kg single i.v.): 970.0 ± 0.0 10^9/L
PT (15 mg/kg single i.v.): 19.9 ± 0.0 s
Phosphate (15 mg/kg single i.v.): 1.53 ± 0 mM
Potassium (15 mg/kg single i.v.): 4.53 ± 0 mM
Protein (Total) (15 mg/kg single i.v.): 66.5 ± 0 g/L
RBC (15 mg/kg single i.v.): 7.31 ± 0.00 10^12/L
Retc. (15 mg/kg single i.v.): 4.52 ± 0.00%
Sodium (15 mg/kg single i.v.): 140 ± 0 mM
Triglycerides (15 mg/kg single i.v.): 0.76 ± 0 mM
Urea (15 mg/kg single i.v.): 6.91 ± 0 mM
WBC (15 mg/kg single i.v.): 10.28 ± 0.00 10^9/L
Body weight loss >10% (termination required) (incidence) (20 mg/kg single i.v.): 0/3
Mild fur loss around both eyes from Study Day 10 to 15 (incidence) (20 mg/kg single i.v.): 1/3
Mild impairment of gait and lack of response to stimuli up to 10 minutes post-dose (incidence) (20 mg/kg single i.v.): 1/3
No remarkable observations (incidence) (20 mg/kg single i.v.): 2/3
Lung - focal red areas medial right lobe (2 mm diameter) (incidence at necropsy) (20 mg/kg single i.v.): 1/3
Lung - haemorrhagic area right caudal lobe (1mm diameter) (incidence at necropsy) (20 mg/kg single i.v.): 1/3
Multifocal red petechiae on all lung lobes (incidence at necropsy) (20 mg/kg single i.v.): 0/3
Pale yellow liver (minimal) (incidence at necropsy) (20 mg/kg single i.v.): 0/3
ALP (20 mg/kg single i.v.): 171 ± 38 U/L
ALT (20 mg/kg single i.v.): 70 ± 9 U/L
APTT (20 mg/kg single i.v.): 17.3 ± 1.0 s
AST (20 mg/kg single i.v.): 93 ± 14 U/L
Albumin (20 mg/kg single i.v.): 36.5 ± 1.1 g/L
Albumin/Globulin (20 mg/kg single i.v.): 1.3 ± 0.1 Ratio
Bilirubin (Total) (20 mg/kg single i.v.): 1.2 ± 0.3 µM
Calcium (20 mg/kg single i.v.): 2.71 ± 0.12 mM
Chloride (20 mg/kg single i.v.): 100.5 ± 0.7 mM
Cholesterol (20 mg/kg single i.v.): 2.16 ± 0.31 mM
Creatinine (20 mg/kg single i.v.): 38 ± 5 µM
Globulin (20 mg/kg single i.v.): 27.9 ± 1.2 g/L
Glucose (20 mg/kg single i.v.): 7.29 ± 0.68 mM
HCT (20 mg/kg single i.v.): 0.46 ± 0.01 L/L
HGB (20 mg/kg single i.v.): 134.3 ± 3.2 g/L
MCH (20 mg/kg single i.v.): 18.53 ± 0.84 pg
MCHC (20 mg/kg single i.v.): 290.7 ± 1.5 g/L
MCV (20 mg/kg single i.v.): 63.7 ± 2.5 fL
PLT (20 mg/kg single i.v.): 957.0 ± 63.5 10^9/L
